Experimental data published in the supplement of paper PMC10307832.

Assays:
Assay in all cases: relative viability (nuclei count vs DMSO), 5 days (fraction); higher = more cells survive
Tosedostat + Linsitinib = compound: CC(C)C[C@@H](C(=O)N[C@H](C(=O)OC1CCCC1)c1ccccc1)[C@H](O)C(=O)NO [Tosedostat] + C[C@]1(O)C[C@@H](c2nc(-c3ccc4ccc(-c5ccccc5)nc4c3)c3c(N)nccn32)C1 [Linsitinib] (partner 1 µM)
Outline: (§1)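 Relative viability equals treated-well nuclei counts divided by vehicle-well nuclei counts. Counts came from 4× images of lung cancer cell lines grown in 1536-well plates for 5 days after pin-tool dosing on the day after seeding. Dosing used one drug alone or a fixed anchor-drug dose plus five library-drug doses (not always all listed) in √10 steps, and values are medians of duplicate plates.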

[1] = compound: CC1=NN=C(O1)C2=NN=C(C=C2)N3CCC(CC3)OC4=C(C=CC(=C4)F)Cl + C[C@@H](Oc1cc(-c2cnn(C3CCNCC3)c2)cnc1N)c1c(Cl)ccc(F)c1Cl [Crizotinib] (partner 1 µM)
Outline: as §1

[2] = compound: CC1=NN=C(O1)C2=NN=C(C=C2)N3CCC(CC3)OC4=C(C=CC(=C4)F)Cl + Nc1nc2[nH]cc(CCc3ccc(C(=O)N[C@@H](CCC(=O)O)C(=O)O)cc3)c2c(=O)[nH]1 [Pemetrexed] (partner 0.2 µM)
Outline: as §1

[3] = compound: CC1=NN=C(O1)C2=NN=C(C=C2)N3CCC(CC3)OC4=C(C=CC(=C4)F)Cl + O=C(c1cc(Cc2n[nH]c(=O)c3ccccc23)ccc1F)N1CCN(C(=O)C2CC2)CC1 [Olaparib] (partner 8 µM)
Outline: as §1

Cell Line | relative viability (Tosedostat + Linsitinib; first compound 0.02 µM) | relative viability (Tosedostat + Linsitinib; first compound 0.06325 µM) | relative viability (Tosedostat + Linsitinib; first compound 0.2 µM) | relative viability (Tosedostat + Linsitinib; first compound 0.6325 µM) | relative viability (Tosedostat + Linsitinib; first compound 2 µM) | relative viability ([1]; first compound 0.253 µM) | relative viability ([1]; first compound 0.8 µM) | relative viability ([1]; first compound 2.53 µM) | relative viability ([1]; first compound 8 µM) | relative viability ([2]; first compound 0.253 µM) | relative viability ([2]; first compound 0.8 µM) | relative viability ([2]; first compound 2.53 µM) | relative viability ([2]; first compound 8 µM) | relative viability ([3]; first compound 0.253 µM) | relative viability ([3]; first compound 0.8 µM) | relative viability ([3]; first compound 2.53 µM) | relative viability ([3]; first compound 8 µM)
201T | 0.99 | 1.09 | 1.11 | 1.21 | 1.17 | 0.456 | 0.504 | 0.499 | 0.484 | 0.314 | 0.255 | 0.316 | 0.339 | 0.409 | 0.382 | 0.389 | 0.383
NCI-H661 | 0.552 | 0.592 | 0.555 | 0.494 | 0.495 | 0.609 | 0.661 | 0.711 | 0.747 | 0.736 | 0.695 | 0.676 | 0.652 | 0.619 | 0.542 | 0.583 | 0.586
RERF-LC-KJ | 0.933 | 0.875 | 0.854 | 0.839 | 0.795 | 0.496 | 0.498 | 0.495 | 0.458 | 0.446 | 0.43 | 0.438 | 0.455 | 0.377 | 0.536 | 0.553 | 0.529
HCC-15 | 0.826 | 0.876 | 0.848 | 0.831 | 0.672 | 0.42 | 0.405 | 0.374 | 0.36 | 0.215 | 0.239 | 0.226 | 0.214 | 0.354 | 0.305 | 0.348 | 0.337
NCI-H1666 | 0.864 | 0.815 | 0.805 | 0.818 | 0.989 | 0.612 | 0.621 | 0.636 | 0.629 | 0.735 | 0.69 | 0.741 | 0.751 | 0.692 | 0.728 | 0.655 | 0.664
LCLC-103H | 1.29 | 1.08 | 1.06 | 1.18 | 1.36 | 0.819 | 0.746 | 0.723 | 0.746 | 0.435 | 0.418 | 0.403 | 0.409 | 0.512 | 0.509 | 0.514 | 0.465
NCI-H650 | 0.853 | 0.84 | 0.679 | 0.656 | 0.494 | 0.691 | 0.692 | 0.64 | 0.818 | 0.943 | 0.65 | 0.781 | 0.814 | 0.39 | 0.227 | 0.407 | 0.382
EPLC-272H | 1.06 | 1.25 | 0.92 | 0.855 | 0.712 | 0.877 |  | 0.926 | 1.03 | 0.313 | 0.339 | 0.285 | 0.371 | 0.744 | 0.742 | 0.758 | 0.657
